What follows are compounds tested on NIH3T3 (assay: Cytotoxicity against mouse NIH/3T3 cells assessed as reduction in cell viability incubated for 24 hrs by MTT assay). Conditions: NIH3T3, 24 h.
Assay type: cell-based

Compound	IC50 [µM]
CN1CCN(C(=S)SCC(=O)Nc2ccc(S(N)(=O)=O)cc2)CC1	14.5
NS(=O)(=O)c1ccc(NC(=O)CSC(=S)N2CCN(c3ncccn3)CC2)cc1	16.5
NS(=O)(=O)c1ccc(NC(=O)CSC(=S)N2CCN(c3ccccn3)CC2)cc1	18.5
Cc1ccc(CN2CCN(C(=S)SCC(=O)Nc3ccc(S(N)(=O)=O)cc3)CC2)cc1	58.1
CN(C)CCN1CCN(C(=S)SCC(=O)Nc2ccc(S(N)(=O)=O)cc2)CC1	> 1000
CN(C)CCCN1CCN(C(=S)SCC(=O)Nc2ccc(S(N)(=O)=O)cc2)CC1	> 1000

— ChEMBL document CHEMBL4680258, “Synthesis, characterization and carbonic anhydrase I and II inhibitory evaluation of new sulfonamide derivatives bearing dithiocarbamate” (Eur J Med Chem, 2020)
